Test system: naproxen-induced gastric ulcer
Experiment: naproxen-induced gastric ulcer in rats (ulcer index 5 hours after oral dosing)
Type: in vivo, Male Crl: CD (SD) rats
Details: for Ulcer Index (Mean ± S.E.): rats; for % Inhibition of ulcer index: vs vehicle + naproxen group
Protocol: Male Crl: […] The animal was euthanized by cervical dislocation 5 hours after administration of the dosing preparation, and the stomach was removed. The stomach was filled with 10 mL of saline and fixed in 1% formalin. Then the stomach was opened along the greater curvature and gently washed with saline. The length of the major axis of each gastric ulcer was measured with digital slide gauges, and the total length of the major axes of all gastric ulcers (ulcer index) was obtained.

SMILES: Cc1c(OCC(F)(F)F)ccnc1C[S+]([O-])c1nc2ccccc2[nH]1 (stereo not shown) [Lansoprazole, lansoprazole, reference compound]
- Ulcer Index (Mean ± S.E.) (Lansoprazole 1000 μg/kg + naproxen 200 mg/kg oral, 5 hours): 68.09 ± 7.61
- % Inhibition of ulcer index (Lansoprazole 1000 μg/kg + naproxen 200 mg/kg): 16%
- effect on naproxen-induced gastric ulcers (in words) (lansoprazole 1000 μg/kg with naproxen): did not have a significant effect

SMILES: COc1ccc2cc([C@H](C)C(=O)O)ccc2c1 [naproxen, reference compound]
- Ulcer Index (Mean ± S.E.) (Vehicle (0.01% Tween 80) + naproxen 200 mg/kg oral, 5 hours after administration, n=10): 81.48 ± 15.05

SMILES: CC[C@H](C)CC(F)(F)C(=O)CC[C@H]1[C@H](O)CC(=O)[C@@H]1CCCCCCC(=O)O [Compound A, 13,14-dihydro-15-keto-16,16-difluoro-18(S)-methyl-PGE1]
- Ulcer Index (Mean ± S.E.) (Compound A 1 μg/kg + naproxen 200 mg/kg oral, 5 hours): 63.47 ± 10.87
- % Inhibition of ulcer index (Compound A 1 μg/kg + naproxen 200 mg/kg): 22%
- Ulcer Index (Mean ± S.E.) (Compound A 10 μg/kg + naproxen 200 mg/kg oral, 5 hours, p<0.05 vs vehicle + naproxen): 12.15 ± 3.45
- % Inhibition of ulcer index (Compound A 10 μg/kg + naproxen 200 mg/kg): 85%
- reduction of ulcer formation, significance (in words) (Compound A 10 μg/kg and 100 μg/kg + naproxen 200 mg/kg groups compared to vehicle + naproxen group): Significant reductions of ulcer formation
- Ulcer Index (Mean ± S.E.) (Compound A 100 μg/kg + naproxen 200 mg/kg oral, 5 hours, p<0.01 vs vehicle + naproxen): 0.50 ± 0.40
- % Inhibition of ulcer index (Compound A 100 μg/kg + naproxen 200 mg/kg): 99.4%
- ulcer formation induced by naproxen (in words) (Compound A at 1, 10 and 100 μg/kg with naproxen 200 mg/kg, dose-dependent): reduced
- protective effect against ulcer formation in combination with NSAID (in words) (overall conclusion of Example 1): potent protective effect against ulcer formation

Reference: patent publication US20090012165A1, “PHARMACEUTICAL COMBINATION OF NSAID AND PROSTAGLANDIN COMPOUND” (priority 2007, published 2009)
